Activity calls are given as the source filed them. The calls are words filed in the database; no cut-off is given here.
Experiments:
[1] = biological target: NACHT, LRR and PYD domains-containing protein 3 (Mus musculus) (UniProt Q8R4B8); assay: Inhibition of NLRP3 inflammasome activation in LPS/ATP-induced C57BL/6 mouse BMDMs assessed as reduction in IL-1beta secretion at 50 to 200 nM preincubated with LPS for 4 hrs followed by compound addition for 30 mins and further stimulated with ATP for 30 mins by Western blotting analysis relative to oridonin; format: cell-based; conditions: BMDM, dose 50-200 nM, time 1.0 hrs
NACHT, LRR and PYD domains-containing protein 3 (Mus musculus), sequence (Q8R4B8 whole entry, the tested form may be a part): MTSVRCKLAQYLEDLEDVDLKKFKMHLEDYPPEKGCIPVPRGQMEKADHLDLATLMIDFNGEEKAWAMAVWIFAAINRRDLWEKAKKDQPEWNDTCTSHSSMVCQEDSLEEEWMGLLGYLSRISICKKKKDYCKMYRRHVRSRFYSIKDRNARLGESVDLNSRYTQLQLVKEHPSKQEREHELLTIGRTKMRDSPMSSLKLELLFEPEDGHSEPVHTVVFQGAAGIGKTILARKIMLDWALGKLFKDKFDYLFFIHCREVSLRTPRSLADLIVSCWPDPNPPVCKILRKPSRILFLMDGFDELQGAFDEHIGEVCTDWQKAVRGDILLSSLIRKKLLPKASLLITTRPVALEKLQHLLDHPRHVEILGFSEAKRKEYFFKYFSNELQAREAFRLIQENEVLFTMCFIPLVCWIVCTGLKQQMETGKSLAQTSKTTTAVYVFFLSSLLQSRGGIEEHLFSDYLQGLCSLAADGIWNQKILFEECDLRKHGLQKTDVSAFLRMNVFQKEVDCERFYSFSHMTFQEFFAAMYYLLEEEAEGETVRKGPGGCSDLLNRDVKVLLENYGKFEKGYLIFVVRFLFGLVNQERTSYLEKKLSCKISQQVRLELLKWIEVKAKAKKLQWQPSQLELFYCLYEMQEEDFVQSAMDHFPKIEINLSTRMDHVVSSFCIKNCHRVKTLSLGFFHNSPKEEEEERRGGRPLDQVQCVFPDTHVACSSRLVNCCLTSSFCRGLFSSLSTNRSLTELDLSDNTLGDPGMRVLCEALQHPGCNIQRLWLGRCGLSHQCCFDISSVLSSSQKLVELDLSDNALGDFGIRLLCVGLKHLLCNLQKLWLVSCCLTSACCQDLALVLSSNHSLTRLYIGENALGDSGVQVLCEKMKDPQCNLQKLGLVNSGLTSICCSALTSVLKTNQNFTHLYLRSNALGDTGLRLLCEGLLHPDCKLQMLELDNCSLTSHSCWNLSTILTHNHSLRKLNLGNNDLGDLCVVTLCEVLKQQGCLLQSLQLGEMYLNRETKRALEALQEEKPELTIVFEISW

[2] = Stability in mouse plasma assessed as half life measured upto 8 hrs; format: ADME, cell-free
[3] = biological target: NACHT, LRR and PYD domains-containing protein 3 (Mus musculus) (UniProt Q8R4B8); assay: Inhibition of NLRP3 inflammasome activation in LPS/ATP-induced C57BL/6 mouse BMDMs assessed as reduction in pro-IL-1beta production at 50 to 200 nM preincubated with compound prior to LPS addition for 30 mins and further stimulated with ATP for 30 mins by Western blotting analysis; format: cell-based; conditions: BMDM, dose 50-200 nM, time 60.0 min
[4] = Stability in human plasma assessed as half life measured upto 8 hrs; format: ADME, cell-free
[5] = Stability in rat liver microsomes assessed as half life preincubated for 5 mins with NADPH followed by compound addition and measured upto 120 mins by LC-MS/MS analysis; format: ADME, Microsome; conditions: time < 125 min
[6] = biological target: NACHT, LRR and PYD domains-containing protein 3 (Mus musculus) (UniProt Q8R4B8); assay: (§1) Inhibition of NLRP3 inflammasome activation in LPS/ATP-induced C57BL/6 mouse BMDMs assessed as inhibition of ASC oligomerization by measuring reduction in cleaved caspase-1 secretion at 50 to 200 nM preincubated with LPS for 4 hrs followed by compound addition for 30 mins and further stimulated with ATP for 30 mins by Western blotting analysis; format: cell-based; conditions: BMDM, dose 50-200 nM, time 1.0 hrs
[7] = Stability in mouse liver microsomes assessed as half life preincubated for 5 mins with NADPH followed by compound addition and measured upto 120 mins by LC-MS/MS analysis; format: ADME, Microsome; conditions: time < 125 min
[8] = biological target: NACHT, LRR and PYD domains-containing protein 3 (Mus musculus) (UniProt Q8R4B8); assay: Inhibition of NLRP3 inflammasome activation in LPS/ATP-induced C57BL/6 mouse BMDMs assessed as reduction in NLRP3 expression preincubated with compound prior to LPS addition for 30 mins and further stimulated with ATP for 30 mins by Western blotting analysis; format: cell-based; conditions: BMDM, dose 50-200 nM, time 60.0 min
[9] = biological target: NACHT, LRR and PYD domains-containing protein 3 (Mus musculus) (UniProt Q8R4B8); assay: Inhibition of NLRP3 inflammasome activation in LPS/alum-induced C57BL/6 mouse BMDMs at 200 nM preincubated with LPS for 18 hrs followed by compound addition for 30 mins and further stimulated with alum for 8 hrs by ELISA; format: cell-based; conditions: BMDM, time 8.5 hrs
[10] = AUC in ICR mouse at 10 mg/kg, po measured upto 24 hrs by LC-MS/MS method; format: ADME, organism-based; conditions: in vivo, po, 10 mg/kg, 24 h
[11] = biological target: Nlrp3/Pycard (Mus musculus) (UniProt Q8R4B8+Q9EPB4); assay: Inhibition of NLRP3/ASC protein-protein interaction in LPS/ATP-induced C57BL/6 mouse BMDMs at 200 nM preincubated with LPS for 4 hrs followed by compound addition for 30 mins and further stimulated with ATP for 30 mins by Western blotting analysis; format: cell-based; conditions: BMDM, time 1.0 hrs
Nlrp3/Pycard (Mus musculus), sequence (Q8R4B8 whole entry, looked up, the tested form may be a part): as the sequence (Q8R4B8 whole entry, the tested form may be a part) above
Nlrp3/Pycard (Mus musculus), sequence (Q9EPB4 whole entry, looked up, the tested form may be a part): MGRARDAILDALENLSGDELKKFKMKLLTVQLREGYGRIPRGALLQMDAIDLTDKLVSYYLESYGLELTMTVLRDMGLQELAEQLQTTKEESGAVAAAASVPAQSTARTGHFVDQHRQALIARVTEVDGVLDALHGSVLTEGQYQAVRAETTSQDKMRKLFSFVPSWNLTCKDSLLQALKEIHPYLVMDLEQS

[12] = biological target: NACHT, LRR and PYD domains-containing protein 3 (Mus musculus) (UniProt Q8R4B8); assay: Inhibition of NLRP3 inflammasome activation in LPS-induced C57BL/6 mouse BMDMs assessed as effect on p65 expression at 50 to 200 nM preincubated for 24 hrs followed by LPS addition for 4 hrs by Western blotting analysis; format: cell-based; conditions: BMDM, dose 50-200 nM, time 28.0 hrs
[13] = Oral bioavailability in ICR mouse at 10 mg/kg measured upto 24 hrs by LC-MS/MS method; format: ADME, organism-based; conditions: in vivo, po, 10 mg/kg, 24 h
[14] = biological target: NLRP3-NEK7 (Mus musculus) (UniProt Q8R4B8+Q9ES74); assay: Inhibition of NLRP3/NEK7 protein-protein interaction in LPS/ATP-induced C57BL/6 mouse BMDMs at 200 nM preincubated with LPS for 4 hrs followed by compound addition for 30 mins and further stimulated with ATP for 30 mins by Western blotting analysis; format: cell-based; conditions: BMDM, time 1.0 hrs
NLRP3-NEK7 (Mus musculus), sequence (Q8R4B8 whole entry, looked up, the tested form may be a part): as the sequence (Q8R4B8 whole entry, the tested form may be a part) above
NLRP3-NEK7 (Mus musculus), sequence (Q9ES74 whole entry, looked up, the tested form may be a part): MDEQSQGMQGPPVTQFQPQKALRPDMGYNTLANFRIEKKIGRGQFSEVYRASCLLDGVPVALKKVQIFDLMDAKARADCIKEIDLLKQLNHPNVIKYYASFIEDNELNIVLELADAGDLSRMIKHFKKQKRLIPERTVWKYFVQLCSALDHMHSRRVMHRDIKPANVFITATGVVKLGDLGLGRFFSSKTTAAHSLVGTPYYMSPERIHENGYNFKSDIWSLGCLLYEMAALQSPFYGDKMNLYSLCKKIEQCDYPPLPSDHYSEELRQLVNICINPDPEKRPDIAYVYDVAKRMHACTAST

[15] = biological target: NACHT, LRR and PYD domains-containing protein 3 (Mus musculus) (UniProt Q8R4B8); assay: as §1, with “pro-IL-1beta expression” for “cleaved caspase-1 secretion”; format: cell-based; conditions: BMDM, dose 50-200 nM, time 1.0 hrs
Mus musculus [16] = assay: Antiinflammatory activity in C57BL/6 mouse model of arthritis assessed as reduction in MSU-induced pro-caspase 1 expression in joints at 12.5 to 25 mg/kg, iv measured upto 24 hrs; format: functional, organism-based; conditions: dose 12.5-25 mg/kg
[17] = Half-life in ICR mouse at 1 mg/kg, iv measured upto 24 hrs by LC-MS/MS method; format: ADME, organism-based; conditions: in vivo
[18] = biological target: NACHT, LRR and PYD domains-containing protein 3 (Mus musculus) (UniProt Q8R4B8); assay: as §1, with “ASC expression” for “cleaved caspase-1 secretion”; format: cell-based; conditions: BMDM, dose 50-200 nM, time 1.0 hrs
Mus musculus [19] = assay: Antiinflammatory activity in MSU-induced C57BL/6 mouse model of arthritis assessed as reduction in inflammatory cell infiltration at 12.5 to 25 mg/kg, iv measured after 24 hrs; format: functional, organism-based; conditions: dose 12.5-25 mg/kg
Mus musculus [20] = assay: Antiinflammatory activity in MSU-induced C57BL/6 mouse model of arthritis assessed as reduction in inflammatory cell infiltration at 100 mg/kg, po measured after 24 hrs; format: functional, organism-based
[21] = biological target: NACHT, LRR and PYD domains-containing protein 3 (Mus musculus) (UniProt Q8R4B8); assay: Inhibition of NLRP3 inflammasome activation in LPS-induced C57BL/6 mouse BMDMs assessed as reduction in pro-IL-1beta mRNA level at 50 to 200 nM preincubated for 24 hrs followed by LPS addition for 4 hrs by qRT-PCR analysis; format: cell-based; conditions: BMDM, dose 50-200 nM, time 28.0 hrs
[22] = biological target: NACHT, LRR and PYD domains-containing protein 3 (Mus musculus) (UniProt Q8R4B8); assay: Inhibition of NLRP3 inflammasome activation in LPS/ATP-induced C57BL/6 mouse BMDMs assessed as reduction in IL-1beta secretion at 200 nM preincubated with LPS for 4 hrs followed by compound addition for 30 mins and further stimulated with ATP for 30 mins by ELISA relative to control; format: cell-based; conditions: BMDM, time 1.0 hrs
[23] = biological target: NACHT, LRR and PYD domains-containing protein 3 (Mus musculus) (UniProt Q8R4B8); assay: Binding affinity to NLRP3 in mouse BMDMs at 10^-2 to 10^3 uM incubated for 10 to 90 mins by ITDRF; format: cell-based; conditions: BMDM, dose 0.01-1000 µM, time 10-90 min
BMDM = assay: Inhibition of mitochondrial damage in mouse BMDMs at 200 nM preincubated with LPS for 4 hrs followed by compound addition for 30 mins and further stimulated with ATP for 30 mins by confocal microscopic analysis; format: functional, cell-based; conditions: time 1.0 hrs
[24] = AUC in ICR mouse at 1 mg/kg, iv measured upto 24 hrs by LC-MS/MS method; format: ADME, organism-based; conditions: in vivo, iv, 1 mg/kg, 24 h
Mus musculus [25] = assay: Antiinflammatory activity in C57BL/6 mouse model of arthritis assessed as reduction in MSU-induced NLRP3 expression in joints at 12.5 to 25 mg/kg, iv measured upto 24 hrs; format: functional, organism-based; conditions: dose 12.5-25 mg/kg
[26] = biological target: NACHT, LRR and PYD domains-containing protein 3 (Mus musculus) (UniProt Q8R4B8); assay: Inhibition of NLRP3 inflammasome activation in LPS-induced C57BL/6 mouse BMDMs assessed as effect on phosphorylated p65 expression at 50 to 200 nM preincubated for 24 hrs followed by LPS addition for 4 hrs by Western blotting analysis; format: cell-based; conditions: BMDM, dose 50-200 nM, time 28.0 hrs
[27] = Hepatotoxicity in mouse assessed as change in AST/ALT ratio at 100 mg/kg, po or 12.5 to 25 mg/kg, iv; format: toxicity, organism-based; conditions: in vivo
[28] = biological target: NACHT, LRR and PYD domains-containing protein 3 (Mus musculus) (UniProt Q8R4B8); assay: Inhibition of NLRP3 inflammasome activation in LPS/ATP-induced C57BL/6 mouse BMDMs assessed as reduction in IL-1beta secretion at 500 nM preincubated with LPS for 4 hrs followed by compound addition for 30 mins and further stimulated with ATP for 30 mins by ELISA relative to control; format: cell-based; conditions: BMDM, time 1.0 hrs

C=C1C(=O)[C@]23[C@H](O)[C@H]1CC[C@H]2[C@]12C=CCC(C)(C)[C@H]1[C@H](O)[C@@]3(OCCC(=O)O)OC2
inhibition [1]: Active | half-life [2]: 15.2 h | inhibition [3]: Active | half-life [4]: 6.92 h | half-life [5]: 3.19 h | inhibition [6]: Active | half-life [7]: 3.07 h | inhibition [8]: inactive | inhibition [9]: Active | AUC [10]: 525.5 ng·h/mL | inhibition [11]: Active | inhibition [12]: inactive | F [13]: 9% | inhibition [14]: Active | inhibition [15]: inactive | Activity (Mus musculus [16]): inactive | half-life [17]: 1.98 h | inhibition [18]: inactive | Activity (Mus musculus [19]): Active | Activity (Mus musculus [20]): Active | inhibition [21]: inactive | inhibition [22]: 87.5% | Activity [23]: Active | inhibition (BMDM): inactive | AUC [24]: 242 ng·h/mL | Activity (Mus musculus [25]): inactive | inhibition [26]: inactive | Activity [27]: Non-Toxic | inhibition [28]: 95.3%
